The values below come from patent publication US20260294913A1, “COMBINATION THERAPY OF DACOMITINIB AND NINTEDANIB FOR PREVENTION OR TREATMENT OF PULMONARY FIBROSIS” (KOREA INSTITUTE OF RADIOLOGICAL & MEDICAL SCIENCES, priority 2023, published 2026).

The test system of this experiment is mice with radiation-induced pulmonary fibrosis. In words: Inhibitory effect on radiation-induced pulmonary fibrosis in mice (micro-CT, H&E and Masson's Trichrome staining). It is filed as in vivo, C57BL/6 mice. As to conditions: first dose 1 h prior to SBRT (90 Gy), two weeks after radiation, as compared to untreated group. The protocol: Seven-week-old male C57BL/6 mice were divided into groups receiving nintedanib, which is an FDA-approved pulmonary fibrosis inhibitor, dacomitinib, which is an EGFR TKI, and a combination thereof, and orally administered one hour prior to stereotactic body radiation therapy (SBRT) (90 Gy, 4 mm collimator). Two weeks after radiation, the degree of pulmonary fibrosis and the inhibitory effect on radiation-induced lung injury were observed.
The nintedanib group received 60 mg/kg daily, the dacomitinib group received 10 mg/kg daily, and the combination group received 60 mg/kg of nintedanib and 10 mg/kg of dacomitinib. All drugs were orally administered daily. In addition, to analyze the degree of inflammatory response and the degree of fibrosis, H&E staining and Masson's Trichrome staining were performed and the grade of pulmonary fibrosis and the degree of collagen deposition are graphically represented in FIG. 2.

For `COc1cc2ncnc(Nc3ccc(F)c(Cl)c3)c2cc1NC(=O)/C=C/CN1CCCCC1` [dacomitinib, (E)-N-(4-((3-chloro-4-fluorophenyl)amino)-7-methoxyquinazolin-6-yl)-4-(piperidin-1-yl) but-2-enamide], the “degree of pulmonary fibrosis” value (dacomitinib alone, 10 mg/kg daily oral) was “reduced fibrosis”. Consider `COC(=O)c1ccc2c(c1)NC(=O)/C2=C(\Nc1ccc(N(C)C(=O)CN2CCN(C)CC2)cc1)c1ccccc1` [nintedanib, methyl (3Z)-3-{[(4-(methyl[(4-methylpiperazin-1-yl)acetyl]amino}phenyl)amino](phenyl)methylidene)-2-oxo-2,3-dihydro-1H-indole-6-carboxylate], for which the “degree of pulmonary fibrosis” value (nintedanib alone, 60 mg/kg daily oral) is “reduced fibrosis”.
